Test results reported in patent US10632324B2, “Method for the treatment of skin tissues” (9127-4910 Quebec Inc., priority 2017, dated 2020).

Columns and labels:
Type in all cases: in vivo, human
[1] = tested on: cystic acne; experiment: Split face/back pre-PDT radiant IR study, 10 cystic acne patients (Example 8); conditions: for decrease in the number of cystic lesions: one month after PDT
Description: In summary, ten patients were enrolled in a split face or split back (pre-treated side versus control) study with a pre-approved IRB protocol. […] Lesion count was assessed both manually and by digital photography before and 4 weeks after one PDT procedure. Prior to the application of 5-ALA, one side of the face or back was pre-treated with radiant IR [CW LEDs emitting @λ 970 nm, irradiance 50 mW/cm2 for 15 minutes, total fluence 45 J/cm2], while the other half was used as control. PDT was then performed on the entire surface (face or back) using 5-ALA in a conventional manner.
Patients were assigned to a split face or split back group. One side was pre-treated for 15 minutes with radiant IR [CW LEDs emitting @λ 970 nm, irradiance 50 mW/cm^2, total fluence 45 J/cm^2] to obtain a temperature of about 42 Celsius, while the other side was used as control. ALA was then applied after which PDT was performed on the entire face or back surface. Lesion count was assessed manually and by digital photography, before and 4 weeks after the PDT procedure. Exclusion criteria were: current use of the following medications: (Prednisone), anticoagulant therapy, drugs known to cause photo-sensitivity reactions. In addition, during 12 months preceding the study, subjects are required not to take Accutane (isotretinoin); use of corticosteroids on the treated area within 2 weeks of first treatment; use of topical tretinoin (like Retisol-A, Retin-A, Vitamin A acid, Retin-A micro) for at least 1 month prior to enrollment; yanned skin around or on the area to be treated: the back. previous laser of medicated treatment at the treatment site (to be studied) and for the duration of the study; presence of any known diseases among vitiligo, psoriasis, severe eczema, poor skin healing. active infection, immunosuppression, coagulation problem, peripheral arterial disease, hematologic abnormalities, vasculitis, and previous history of epilepsy; pregnancy; alcohol or drug abuse before and during the study.
After the pre-treatment with IR radiation, 5-ALA was applied onto slightly abraded skin and left to incubate for 60 minutes on both IR-pre-treated and control sides. Then, the 5-ALA treated regions were irradiated with a LED source of red light (wavelength of […], in accordance to standard therapy, until a mild to moderate erythema appeared. Immediately afterwards, the 5-ALA treated regions were irradiated with a LED source of blue light (wavelength of 405 nm, power density 30 mW/cm^2) in continuous wave mode for 3 min.

[2] = tested on: conversion of 5-ALA to PpIX; experiment: FluoDerm fluorescence after 940 nm irradiation 8-53 h before 5-ALA, two subjects (Example 11); parameters: unit not given here
Description: In view of these promising results, another study with even longer delays before application of 5-ALA was performed. The back skin of two test subjects was irradiated with continuous wavelength and pulsed infrared light at 940 nm. These irradiations took place 50-53, 24-29, and 8-14 hours prior to the application of the 5-ALA. After a three-hour incubation period with the compound, a FluoDerm™ device was used to measure the fluorescence of the skin ([…]) a direct indication of the activity of 5-ALA. 5-ALA must penetrate the skin and then be converted to PpIX before any fluorescence increase can be observed. […] Conclusion: This preconditioning method uses a temperature-independent mechanism of action via cell signaling pathways as in photobiomodulation.

[3] = tested on: transformation of 5-aminolevulinic acid to protoporphyrin IX (PpIX); experiment: FluoDerm fluorescence after 940 nm photopreparation 24, 48, 72 h before 5-ALA, 4 subjects (Example 12)
Description: To obtain greater statistical power and investigate even longer term effects, the above study was repeated on other subjects. Below, the results or comparison between the D50 and CW protocols are shown for 4 subjects. Irradiation was performed in accordance with the pattern of FIG. 44, with measurements taken 24, 48 and 72 hours after pre-treatment with D50 and CW, instead of 8-14, 24-29 and 50-53.
More specifically, delineated treatment areas were drawn on each subject's back. These spaces had to be close enough together to enable simultaneous irradiation downstream in the experiment. Areas of each patient's back were then irradiated according to the predetermined photopreparation treatment parameter at the appropriate pre-5-ALA application and activation time. In this study, two light pulsing options were compared—pulsed versus continuous. Both options were set at 940 nm. The time set between the photopreparation treatment and the 5-ALA application was the other variable tested. […] Following the appropriately timed photopreparation treatment of the correct back skin area, 20% 5-aminolevulinic acid (Levulan Kerastick, Dusa, Wilmington, USA) was applied to the patient's back. After the topical application, an incubation time of 3 hours was set to optimize the transformation of the medication to protoporphyrin IX (PpIX). Finally, using the Fluoroderm device, the fluorescence of each subject's back areas was measured. The recorded data was statistically analyzed.
Besides the 20% 5-aminolevulinic acid (Levulan Kerastick, Dusa, Wilmington, USA) used as the photosensitizer and the FluoDerm (Dia-Medico, Denmark) to quantify the fluorescence of each patient's back, a prototype able to irradiate the back skin areas with pulsed (D50 pulsing condition) and continuous wavelength (CW) light at 940 nm was built. This machine was assembled at RoseLab Skin Optics Research Laboratory (Montreal, Canada). The D50-940 nm condition was made up of 940 nm light with a pulsing pattern consisting of a 50% duty cycle delivered in the repeating pattern (in μseconds where PD, PI, and PTI mean pulse duration, pulse interval, and pulse train interval, respectively) of: PD 500 on, PI 150 off, PD 500 on, PI 150 off, PD 500 on and PTI 1550 off (FIG. 3). The irradiance delivered for all conditions (D50 and CW) was 75 mW/cm^2 and the fluence delivered for all conditions was 67.5 J/cm^2 (940 nm LED treatment duration D50=30 min and CW=15 min).
The FluoDerm measured each tested condition. These measurements were then compared to the control (only 5-ALA without photopreparation). The means of these proportional changes were calculated. The final results were categorized by every photopreparation condition (72, 48 and 24 hours pre-treatment). A 95% confidence interval was calculated for each mean.
The data is analyzed and presented as X-fold changes (or differences) as compared to the just 5-ALA control below. Higher number show a higher effect of pre-treatment with IR radiation.

Compound: NCC(=O)CCC(=O)O [5-ALA, 5-aminolevulinic acid]
- decrease in the number of cystic lesions ([1]; IR pre-treated side (970 nm, 50 mW/cm2, 15 min)): 72.5%
- mean+/-standard error number of lesions after treatment ([1]; IR treated site, baseline 49.7+/-13.7): 12.0+/−2.3
- treatment-related adverse effects ([1]; both sides): No treatment-related adverse effects were reported
- decrease in the number of cystic lesions ([1]; control side (no IR)): 47.1%
- mean+/-standard error number of lesions after treatment ([1]; control side, baseline 35.9+/-8.3): 16.3+/−3
- Fluoderm Reading ([2]; subject one, 14 hour time points, CW-940, 3 h incubation): 51.0
- Fluoderm Reading ([2]; subject one, 14 hour time points, D50-940, 3 h incubation): 44.5
- Fluoderm Reading ([2]; subject one, 24 hour time points, CW-940, 3 h incubation): 48.0
- Fluoderm Reading ([2]; subject one, 24 hour time points, D50-940, 3 h incubation): 36.5
- Fluoderm Reading ([2]; subject one, 50 hour time points, CW-940, 3 h incubation): 45.0
- Fluoderm Reading ([2]; subject one, 50 hour time points, D50-940, 3 h incubation): 35.0
- Fluoderm Reading ([2]; subject one, Control, Just 5-ALA, no irradiation): 37.0
- Fluoderm Reading ([2]; subject two, 8 hour time points, CW-940, 3 h incubation): 44.0
- Fluoderm Reading ([2]; subject two, 8 hour time points, D50-940, 3 h incubation): 49.0
- Fluoderm Reading ([2]; subject two, 8 hour time points, S50-940, 3 h incubation): 51.0
- Fluoderm Reading ([2]; subject two, 29 hour time points, CW-940, 3 h incubation): 47.0
- Fluoderm Reading ([2]; subject two, 29 hour time points, D50-940, 3 h incubation): 52.0
- Fluoderm Reading ([2]; subject two, 29 hour time points, S50-940, 3 h incubation): 47.5
- Fluoderm Reading ([2]; subject two, 53 hour time points, CW-940, 3 h incubation): 55.0
- Fluoderm Reading ([2]; subject two, 53 hour time points, D50-940, 3 h incubation): 46.5
- Fluoderm Reading ([2]; subject two, 53 hour time points, S50-940, 3 h incubation): 55.0
- Fluoderm Reading ([2]; subject two, Control, Just 5-ALA, no irradiation): 46.0
- X-fold change of fluorescence as compared to the just 5-ALA control, Mean ([3]; 24 hours pre-treatment, CW-940, 75 mW/cm2, 67.5 J/cm2): 1.18 fold
- X-fold change of fluorescence as compared to the just 5-ALA control, Mean ([3]; 24 hours pre-treatment, D50-940, 75 mW/cm2, 67.5 J/cm2): 1.27 fold
- X-fold change of fluorescence as compared to the just 5-ALA control, Mean ([3]; 48 hours pre-treatment, CW-940, 75 mW/cm2, 67.5 J/cm2): 1.34 fold
- X-fold change of fluorescence as compared to the just 5-ALA control, Mean ([3]; 48 hours pre-treatment, D50-940, 75 mW/cm2, 67.5 J/cm2): 1.08 fold
- X-fold change of fluorescence as compared to the just 5-ALA control, Mean ([3]; 72 hours pre-treatment, CW-940, 75 mW/cm2, 67.5 J/cm2): 1.05 fold
- X-fold change of fluorescence as compared to the just 5-ALA control, Mean ([3]; 72 hours pre-treatment, D50-940, 75 mW/cm2, 67.5 J/cm2): 0.94 fold
